Results taken from ChEMBL document CHEMBL4004854, “Pyrrolo[3',2':6,7]cyclohepta[1,2-b]pyridines with potent photo-antiproliferative activity” (Eur J Med Chem, 2017).
Calls of active or inactive are those of the source. The rule behind the calls is not given here.

How the values were obtained:
[1] = test system: MCF7; assay: Induction of mitochondrial dysfunction in human MCF7 cells at 2 uM under dark condition measured after 0.33 to 2 hrs by mitotracker orange CMTM-ROS/LCS1 dye based confocal microscopic method; format: cell-based; details: mcf7, 2 µM
[2] = test system: MCF7; assay: Induction of apoptosis in human MCF7 cells assessed as live cells at 20 uM upon UV light irradiation measured after 24 hrs by Annexin V-FITC/propidium iodide staining based flow cytometry (reference value: 72%); format: functional
[3] = test system: MCF7; assay: Induction of apoptosis in human MCF7 cells assessed as apoptotic cells at 20 uM upon UV light irradiation measured after 24 hrs by Annexin V-FITC/propidium iodide staining based flow cytometry (reference value: 22%); format: functional
[4] = test system: MCF7; assay: Phototoxicity against human MCF7 cells assessed as reduction in cell viability preincubated for 30 mins followed by 1.25 J/cm2 UV light irradiation measured after 48 hrs by MTT assay; format: functional, cell-based; details: MCF7, light or radiation study
[5] = test system: MCF7; assay: Induction of ROS generation in human MCF7 cells up to 4 uM measured after 2 hrs under dark condition by H2DCFDA staining based fluorescence assay; format: cell-based; details: mcf7, 2 h
[6] = test system: K562; assay: Phototoxicity against human K562 cells assessed as reduction in cell viability preincubated for 30 mins followed by 1.25 J/cm2 UV light irradiation measured after 48 hrs by MTT assay; format: functional, cell-based; details: K562, light or radiation study
[7] = test system: MCF7; assay: Induction of lysosomal activation in human MCF7 cells at 2 uM upon UV light irradiation measured up to 2 hrs by lysotracker green DND26 dye based confocal microscopic method; format: functional, cell-based
[8] = Dark toxicity against human K562 cells assessed as reduction in cell viability after 72 hrs by MTT assay; format: cell-based
[9] = Dark toxicity against human MCF7 cells assessed as reduction in cell viability after 72 hrs by MTT assay; format: cell-based
[10] = test system: Jurkat; assay: Phototoxicity against human Jurkat cells assessed as reduction in cell viability preincubated for 30 mins followed by 1.25 J/cm2 UV light irradiation measured after 48 hrs by MTT assay; format: functional, cell-based; details: light or radiation study
[11] = Dark toxicity against human Jurkat cells assessed as reduction in cell viability after 72 hrs by MTT assay; format: cell-based
[12] = test system: MCF7; assay: Induction of lysosomal activation in human MCF7 cells at 2 uM under dark condition measured up to 2 hrs by lysotracker green DND26 dye based confocal microscopic method; format: cell-based; details: mcf7, 2 h
[13] = test system: MCF7; assay: Induction of mitochondrial dysfunction in human MCF7 cells at 2 uM upon UV light irradiation measured after 0.33 to 2 hrs by mitotracker orange CMTM-ROS/LCS1 dye based confocal microscopic method; format: functional, cell-based
[14] = test system: Escherichia coli; assay: Induction of Escherichia coli pBR322 DNA oxidative damage at 40 uM upon 7.5 J/cm2 UV-A light irradiation in presence of endonuclease-3 by ethidium bromide staining based electrophoresis
[15] = test system: MCF7; assay: Induction of mitochondrial dysfunction in human MCF7 cells assessed as organelle fusion at 2 uM upon UV light irradiation measured after 0.33 to 2 hrs by mitotracker orange CMTM-ROS/LCS1 dye based confocal microscopic method; format: functional, cell-based
[16] = Singlet oxygen sensitizing activity in aqueous acetonitrile solution irradiated with nanosecond laser flash photolysis assessed as lowest triplet-excited state by measuring short lived transient life time at 10^-4 M at 520 nanometer by spectroscopic method
[17] = test system: MCF7; assay: Induction of ROS generation in human MCF7 cells at 4 uM preincubated for 30 mins followed by UV light irradiation measured after 2 hrs by H2DCFDA staining based fluorescence assay relative to control; format: functional
[18] = Singlet oxygen sensitizing activity in aqueous acetonitrile solution irradiated with nanosecond laser flash photolysis assessed as lowest triplet-excited state by measuring long lived transient life time at 10^-4 M at 440 nanometer by spectroscopic method
[19] = test system: MCF7; assay: Induction of mitochondrial dysfunction in human MCF7 cells assessed as mild swelling at 2 uM upon UV light irradiation measured after 0.33 to 2 hrs by mitotracker orange CMTM-ROS/LCS1 dye based confocal microscopic method; format: functional, cell-based
[20] = Induction of singlet oxygen photogeneration in aqueous acetonitrile solution of ADPA assessed as photobleaching of anthracene absorption upon 150 Watt mercury light irradiation at 2.3 10^-5M at 400 nanometer measured up to 100 mins by ferrioxalate actinometry
[21] = Induction of singlet oxygen photogeneration in aqueous acetonitrile solution of ADPA assessed as photobleaching of anthracene absorption upon 150 Watt mercury light irradiation at 2.3 10^-5M at 400 nanometer measured up to 100 mins
[22] = Singlet oxygen sensitizing activity in aqueous acetonitrile solution irradiated with nanosecond laser flash photolysis assessed as lowest triplet-excited state by measuring short lived transient life time at 10^-4 M at 520 nanometer under air equilibrated condition by spectroscopic method
[23] = test system: MCF7; assay: Induction of apoptosis in human MCF7 cells assessed as necrotic cells at 0.7 uM upon UV light irradiation measured after 24 hrs by Annexin V-FITC/propidium iodide staining based flow cytometry relative to control; format: functional
[24] = Drug metabolism in aqueous acetonitrile solution assessed as by-product formation at 2.3 10^-5M upon light irradiation by HPLC analysis; format: physicochemical; details: buffer
[25] = test system: MCF7; assay: Induction of ROS generation in human MCF7 cells up to 4 uM preincubated for 30 mins followed by UV light irradiation measured after 2 hrs in presence of 200 to 500 nM antioxidant NAC by H2DCFDA staining based fluorescence assay; format: functional, cell-based
[26] = test system: Jurkat; assay: Induction of lipid peroxidation in human Jurkat cells upon 2.5 J/cm2 UV light irradiation measured after 24 hrs by TBARS assay; format: functional, cell-based
[27] = test system: MCF7; assay: Induction of apoptosis in human MCF7 cells assessed as apoptotic cells at 0.7 uM upon UV light irradiation measured after 24 hrs by Annexin V-FITC/propidium iodide staining based flow cytometry (reference value: 22%); format: functional
[28] = test system: Escherichia coli; assay: Induction of Escherichia coli pBR322 DNA oxidative damage at 40 uM upon 7.5 J/cm2 UV-A light irradiation in presence of Fpg by ethidium bromide staining based electrophoresis
[29] = test system: Jurkat; assay: Phototoxicity against human Jurkat cells assessed as cell viability at 0.075 uM preincubated for 30 mins followed by 2.5 J/cm2 UV light irradiation measured after 72 hrs in presence of hydroxyl radical scavenger DMTU by MTT assay relative to control; format: functional; details: light or radiation study, read-out: Activity
[30] = test system: Jurkat; assay: Phototoxicity against human Jurkat cells assessed as cell viability at 0.075 uM preincubated for 30 mins followed by 2.5 J/cm2 UV light irradiation measured after 72 hrs in presence of vitamin E by MTT assay relative to control; format: functional; details: light or radiation study, read-out: Activity
[31] = test system: Escherichia coli; assay: Induction of Escherichia coli pBR322 DNA double strand break assessed as linear form DNA bands at 10 to 40 uM upon 7.5 J/cm2 UV-A light irradiation by ethidium bromide staining based UV transillumination assay
[32] = test system: Escherichia coli; assay: Induction of Escherichia coli pBR322 DNA single strand break assessed as open circular form DNA bands at 10 to 40 uM upon 7.5 J/cm2 UV-A light irradiation by ethidium bromide staining based UV transillumination assay
[33] = Drug metabolism in aqueous acetonitrile solution assessed as by-product formation at 2.3 10^-5M upon light irradiation by UV-absorption method; format: physicochemical; details: buffer
[34] = test system: Jurkat; assay: Phototoxic index, ratio of CC50 for human Jurkat cells under dark condition to EC50 for human Jurkat cells under UV light irradiated condition
[35] = test system: MCF7; assay: Induction of mitochondrial dysfunction in human MCF7 cells assessed as perinuclear clustering at 2 uM upon UV light irradiation measured after 0.33 to 2 hrs by mitotracker orange CMTM-ROS/LCS1 dye based confocal microscopic method; format: functional, cell-based
[36] = test system: MCF7; assay: Phototoxic index, ratio of CC50 for human MCF7 cells under dark condition to EC50 for human MCF7 cells under UV light irradiated condition
[37] = test system: MCF7; assay: Induction of apoptosis in human MCF7 cells assessed as caspase-3 activation at 0.25 to 0.5 uM upon 2.5 J/cm2 UV light irradiation measured after 24 hrs by Western blot method; format: functional, cell-based
[38] = Singlet oxygen sensitizing activity in aqueous acetonitrile solution irradiated with nanosecond laser flash photolysis assessed as lowest triplet-excited state by measuring short lived transient life time at 10^-4 M at 520 nanometer under oxygen saturated condition by spectroscopic method
[39] = test system: MCF7; assay: Induction of apoptosis in human MCF7 cells assessed as tBID activation at 0.25 to 0.5 uM upon 2.5 J/cm2 UV light irradiation measured after 24 hrs by Western blot method; format: functional, cell-based
[40] = test system: K562; assay: Phototoxic index, ratio of CC50 for human K562 cells under dark condition to EC50 for human K562 cells under UV light irradiated condition
[41] = Singlet oxygen sensitizing activity in aqueous acetonitrile solution irradiated with nanosecond laser flash photolysis assessed as lowest triplet-excited state by measuring short lived transient life time at 10^-4 M at 520 nanometer under argon saturated condition by spectroscopic method
[42] = test system: MCF7; assay: Induction of lysosomal membrane impairment in human MCF7 cells at 2 uM upon UV light irradiation measured up to 2 hrs by lysotracker green DND26 dye based confocal microscopic method; format: functional, cell-based

Question: Which Activity [1] does the source give for Cn1ccc2c1-c1c(cc(S(=O)(=O)c3ccccc3)c(=O)n1C)CCC2 here?
Answer: Non-Toxic

Question: What about the Activity [2] of the same compound?
Answer: 66%

Question: What about the Activity [3] of the same compound?
Answer: 25%

Question: And the EC50 [4]?
Answer: > 20 µM

Question: And the Activity [5]?
Answer: Non-Toxic

Question: And the EC50 [6]?
Answer: > 20 µM

Question: What about the Activity [7] of the same compound?
Answer: inactive

Question: What about the CC50 at 72 h [8] of the same compound?
Answer: > 20 µM

Question: What about the CC50 at 72 h [9] of the same compound?
Answer: > 20 µM

Question: What about the EC50 [10] of the same compound?
Answer: > 20 µM

Question: And the CC50 at 72 h [11]?
Answer: > 20 µM

Question: And the Activity [12]?
Answer: Non-Toxic

Question: What about the Activity [13] of the same compound?
Answer: inactive

Question: For CCOC(=O)c1cc2c(n1Cc1ccc(OC)cc1)-c1[nH]c(=O)c(S(=O)(=O)c3ccccc3)cc1CCC2, which Activity [1] is on record?
Answer: Non-Toxic

Question: And the Activity [14]?
Answer: Active

Question: What about the Activity [15] of the same compound?
Answer: Active

Question: What about the Time [16] of the same compound?
Answer: < 3.2 microsec

Question: And the Activity [17]?
Answer: <=150%

Question: And the Time [18]?
Answer: > 30 microsec

Question: And the EC50 [4]?
Answer: 0.7 µM

Question: And the Activity [19]?
Answer: Active

Question: What about the Activity [20] of the same compound?
Answer: Active

Question: What about the Activity [21] of the same compound?
Answer: Active

Question: What about the Time [22] of the same compound?
Answer: 1.2 microsec

Question: And the Activity [23]?
Answer: 18%

Question: And the Drug metabolism [24]?
Answer: Metabolite_Notdetected

Question: And the Activity [25]?
Answer: inactive

Question: What about the Activity [26] of the same compound?
Answer: Dose-dependent effect

Question: And the EC50 [6]?
Answer: 0.28 µM

Question: And the Activity [27]?
Answer: 36%

Question: And the Activity [7]?
Answer: Active

Question: And the Activity [28]?
Answer: Active

Question: And the viability at 0.075 µM [29]?
Answer: 80 to 90%

Question: And the viability at 0.075 µM [30]?
Answer: 80 to 90%

Question: What about the Activity [31] of the same compound?
Answer: inactive

Question: And the Activity [32]?
Answer: inactive

Question: And the CC50 at 72 h [8]?
Answer: > 20 µM

Question: And the Drug metabolism [33]?
Answer: Metabolite_Notdetected

Question: What about the “Ratio CC50/EC50” value [34] of the same compound?
Answer: >95.24

Question: And the Activity [35]?
Answer: Active

Question: And the “Ratio CC50/EC50” value [36]?
Answer: >28.53

Question: What about the Activity [37] of the same compound?
Answer: Active

Question: What about the Time [38] of the same compound?
Answer: 0.7 microsec

Question: And the CC50 at 72 h [9]?
Answer: > 20 µM

Question: And the Activity [39]?
Answer: Active

Question: And the “Ratio CC50/EC50” value [40]?
Answer: >71.43

Question: And the EC50 [10]?
Answer: 0.21 µM

Question: What about the Time [41] of the same compound?
Answer: 3.2 microsec

Question: What about the CC50 at 72 h [11] of the same compound?
Answer: > 20 µM

Question: And the Activity [42]?
Answer: Active
